In patent US12065436B2, “Cardiac sarcomere inhibitors” (Cytokinetics, Inc., priority 2018, dated 2024):

Molecular target: bovine cardiac myofibrils (full-length cardiac myosin ATPase in the native sarcomere) (Bos taurus (Bovine), UniProt Q9BE39)
Assay: Skinned bovine cardiac myofibril ATPase assay (PK/LDH-coupled)
Assay type: biochemical
Details: Ca2+ activating to 75% of maximal rate; for CDMF75 IC15: concentration giving 15% inhibition; for IC50: read-out: CDMF75 IC50
Method in brief: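 Inhibition of steady-state ATPase read at 340 nm through a PK/LDH-coupled NADH system (0.5 mM NADH, 1.5 mM PEP). Detergent-skinned bovine cardiac myofibrils, 1 mg/mL, were tested at pH 6.8 in PIPES/MgCl2 with 50 μM ATP and calcium adjusted to give pCa50 or pCa75 activation.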

bovine cardiac myofibrils (full-length cardiac myosin ATPase in the native sarcomere), sequence (Q9BE39 whole entry): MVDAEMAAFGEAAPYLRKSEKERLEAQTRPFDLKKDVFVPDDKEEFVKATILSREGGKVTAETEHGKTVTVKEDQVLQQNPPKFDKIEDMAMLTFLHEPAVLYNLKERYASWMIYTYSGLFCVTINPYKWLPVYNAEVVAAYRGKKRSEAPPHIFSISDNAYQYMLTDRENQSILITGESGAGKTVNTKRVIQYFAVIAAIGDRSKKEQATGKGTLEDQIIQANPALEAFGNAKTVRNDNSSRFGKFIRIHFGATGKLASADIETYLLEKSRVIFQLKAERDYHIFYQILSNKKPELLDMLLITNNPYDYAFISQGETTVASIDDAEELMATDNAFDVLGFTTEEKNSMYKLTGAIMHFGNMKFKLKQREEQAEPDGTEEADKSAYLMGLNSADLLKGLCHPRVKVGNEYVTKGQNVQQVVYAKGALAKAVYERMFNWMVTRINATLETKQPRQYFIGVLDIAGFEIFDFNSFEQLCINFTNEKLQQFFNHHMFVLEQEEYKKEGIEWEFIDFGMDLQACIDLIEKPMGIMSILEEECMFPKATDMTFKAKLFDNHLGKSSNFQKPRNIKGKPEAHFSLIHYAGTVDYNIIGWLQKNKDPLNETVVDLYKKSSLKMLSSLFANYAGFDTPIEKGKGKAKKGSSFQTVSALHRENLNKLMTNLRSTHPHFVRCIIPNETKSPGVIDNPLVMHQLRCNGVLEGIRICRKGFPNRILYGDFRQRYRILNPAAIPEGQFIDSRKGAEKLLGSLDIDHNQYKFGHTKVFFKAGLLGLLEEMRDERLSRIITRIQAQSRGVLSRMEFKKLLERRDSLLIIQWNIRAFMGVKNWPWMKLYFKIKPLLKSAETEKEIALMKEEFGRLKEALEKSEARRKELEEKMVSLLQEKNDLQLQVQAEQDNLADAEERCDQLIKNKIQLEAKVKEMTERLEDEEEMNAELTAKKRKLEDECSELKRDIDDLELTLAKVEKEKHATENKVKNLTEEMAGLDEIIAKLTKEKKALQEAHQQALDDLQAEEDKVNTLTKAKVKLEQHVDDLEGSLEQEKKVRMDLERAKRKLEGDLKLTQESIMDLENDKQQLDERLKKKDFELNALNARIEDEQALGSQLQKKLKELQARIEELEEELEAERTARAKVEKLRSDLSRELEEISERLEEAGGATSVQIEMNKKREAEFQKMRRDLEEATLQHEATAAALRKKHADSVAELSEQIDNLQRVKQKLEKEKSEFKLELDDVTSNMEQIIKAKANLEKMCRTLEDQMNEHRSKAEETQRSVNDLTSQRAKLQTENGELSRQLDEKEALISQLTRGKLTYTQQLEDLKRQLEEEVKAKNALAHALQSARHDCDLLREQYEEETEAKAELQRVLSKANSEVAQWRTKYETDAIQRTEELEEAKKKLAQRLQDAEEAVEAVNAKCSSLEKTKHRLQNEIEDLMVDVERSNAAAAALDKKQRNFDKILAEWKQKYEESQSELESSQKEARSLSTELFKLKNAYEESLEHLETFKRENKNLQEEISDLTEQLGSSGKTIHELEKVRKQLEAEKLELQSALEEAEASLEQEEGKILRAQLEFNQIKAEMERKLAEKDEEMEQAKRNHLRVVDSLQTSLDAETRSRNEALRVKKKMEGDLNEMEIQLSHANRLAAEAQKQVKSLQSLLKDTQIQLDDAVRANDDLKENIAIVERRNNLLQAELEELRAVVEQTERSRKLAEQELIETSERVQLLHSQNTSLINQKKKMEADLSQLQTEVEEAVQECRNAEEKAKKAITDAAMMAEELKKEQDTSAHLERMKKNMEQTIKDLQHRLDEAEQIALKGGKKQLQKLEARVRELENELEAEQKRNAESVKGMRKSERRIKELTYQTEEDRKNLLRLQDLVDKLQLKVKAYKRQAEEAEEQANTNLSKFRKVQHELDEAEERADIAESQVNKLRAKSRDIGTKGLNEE
bovine cardiac myofibrils (full-length cardiac myosin ATPase in the native sarcomere), sequence (P85100 whole entry partner): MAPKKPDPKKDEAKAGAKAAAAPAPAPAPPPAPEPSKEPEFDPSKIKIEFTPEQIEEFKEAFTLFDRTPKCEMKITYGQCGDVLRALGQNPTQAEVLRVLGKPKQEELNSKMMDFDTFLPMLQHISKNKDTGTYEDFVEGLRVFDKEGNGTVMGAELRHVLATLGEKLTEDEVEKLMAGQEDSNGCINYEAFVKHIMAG
bovine cardiac myofibrils (full-length cardiac myosin ATPase in the native sarcomere), sequence (Q3SZE5 whole entry partner): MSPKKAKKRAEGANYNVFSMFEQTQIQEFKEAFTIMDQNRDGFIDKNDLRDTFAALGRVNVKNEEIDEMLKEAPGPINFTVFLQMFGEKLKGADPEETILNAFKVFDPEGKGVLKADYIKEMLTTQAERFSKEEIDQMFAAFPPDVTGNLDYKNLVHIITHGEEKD

| SMILES | CDMF75 IC15 [nM] | IC50 [nM] |
| --- | --- | --- |
| CC(=O)O[C@@H](C)c1nc(-c2ccc3c(c2)CCC3NC(=O)c2cn(C)nc2C)no1 (stereo partly drawn) [Compound 77, (1S)-1-(3-(1-(1,3-dimethyl-1H-pyrazole-4-carboxamido)-2,3-dihydro-1H-inden-5-yl)-1,2,4-oxadiazol-5-yl)ethyl acetate] | 4900 | 26000 |
| CCn1nccc1C(=O)NC1CCc2cc(-c3noc(C(F)F)n3)ccc21 (stereo not shown) [Compound 29, N-(5-(5-(difluoromethyl)-1,2,4-oxadiazol-3-yl)-2,3-dihydro-1H-inden-1-yl)-1-ethyl-1H-pyrazole-5-carboxamide] | 1200 | 5300 |
| Cc1cc(C(=O)NC2CCc3cc(-c4cnc(C)o4)ccc32)ccn1 (stereo not shown) [Compound 134, 2-methyl-N-(5-(2-methyloxazol-5-yl)-2,3-dihydro-1H-inden-1-yl)isonicotinamide] | 39200 | > 39200 |
| CCOCCn1cc(C(=O)N[C@@H]2CCc3cc(-c4noc(CC)n4)ccc32)cn1 [Compound 573, (R)-1-(2-ethoxyethyl)-N-(5-(5-ethyl-1,2,4-oxadiazol-3-yl)-2,3-dihydro-1H-inden-1-yl)-1H-pyrazole-4-carboxamide] | 900 | 4100 |
| Cc1cc(C(=O)N[C@@H]2CCc3cc(-c4nc(C)no4)ccc32)cnn1 [Compound 705, (R)-6-methyl-N-(5-(3-methyl-1,2,4-oxadiazol-5-yl)-2,3-dihydro-1H-inden-1-yl)pyridazine-4-carboxamide] | 4900 | 28100 |
| CCc1nc(-c2ccc3c(c2)CC[C@H]3NC(=O)c2cn[nH]c2OC)no1 [Compound 486, (R)-N-(5-(5-ethyl-1,2,4-oxadiazol-3-yl)-2,3-dihydro-1H-inden-1-yl)-5-methoxy-1H-pyrazole-4-carboxamide] | 4100 | 24300 |
| CCc1nc(-c2ccc3c(c2)CC[C@H]3NC(=O)c2cc(C)ncc2F)no1 [Compound 556, (R)-N-(5-(5-ethyl-1,2,4-oxadiazol-3-yl)-2,3-dihydro-1H-inden-1-yl)-5-fluoro-2-methylisonicotinamide] | 1400 | 7600 |
| Cn1nnc(C(=O)NC2COc3cc(-c4noc(C5CC5)n4)ccc32)n1 (stereo not shown) [Compound 234, N-(6-(5-cyclopropyl-1,2,4-oxadiazol-3-yl)-2,3-dihydrobenzofuran-3-yl)-2-methyl-2H-tetrazole-5-carboxamide] | 1900 | 8000 |
| Cn1nccc1C(=O)N[C@@H]1CCc2cc(-c3noc(C4CCO4)n3)ccc21 (stereo partly drawn) [Compound 174, 1-methyl-N-((1R)-5-(5-(oxetan-2-yl)-1,2,4-oxadiazol-3-yl)-2,3-dihydro-1H-inden-1-yl)-1H-pyrazole-5-carboxamide] | 1100 | 3800 |
| Cn1ncc(C(=O)NC2CCc3cc(-c4noc(C(F)F)n4)ccc32)n1 (stereo not shown) [Compound 83, N-(5-(5-(difluoromethyl)-1,2,4-oxadiazol-3-yl)-2,3-dihydro-1H-inden-1-yl)-2-methyl-2H-1,2,3-triazole-4-carboxamide] | 1900 | 7800 |
| Cc1nc(-c2ccc3c(c2)CC[C@H]3NC(=O)OC2CCC2)no1 [Compound 319, cyclobutyl (R)-(5-(5-methyl-1,2,4-oxadiazol-3-yl)-2,3-dihydro-1H-inden-1-yl)carbamate] | 1300 | 5300 |
| [2H]C([2H])([2H])c1nc(-c2ccc3c(c2)CC[C@H]3NC(=O)c2cnn(CCOC)c2)no1 [Compound 514, (R)-1-(2-methoxyethyl)-N-(5-(5-(methyl-d3)-1,2,4-oxadiazol-3-yl)-2,3-dihydro-1H-inden-1-yl)-1H-pyrazole-4-carboxamide] | 2700 | 11000 |
| Cc1noc(C(=O)NC2CCc3cc(-c4noc(C(F)F)n4)ccc32)n1 (stereo not shown) [Compound 127, N-(5-(5-(difluoromethyl)-1,2,4-oxadiazol-3-yl)-2,3-dihydro-1H-inden-1-yl)-3-methyl-1,2,4-oxadiazole-5-carboxamide] | 1700 | 7700 |
| Cc1cc(-c2ccc3c(c2)OC[C@H]3NC(=O)c2nnn(C)n2)no1 [Compound 364, (S)-2-methyl-N-(6-(5-methylisoxazol-3-yl)-2,3-dihydrobenzofuran-3-yl)-2H-tetrazole-5-carboxamide] | 1600 | 6800 |
| Cc1nc(-c2ccc3c(c2)CCC3NC(=O)c2ocnc2C)no1 (stereo not shown) [Compound 51, 4-methyl-N-(5-(5-methyl-1,2,4-oxadiazol-3-yl)-2,3-dihydro-1H-inden-1-yl)oxazole-5-carboxamide] | 1200 | 3600 |
| COCc1nc(-c2ccc3c(c2)CC[C@H]3NC(=O)c2cccc(CO)c2F)no1 [Compound 670, (R)-2-fluoro-3-(hydroxymethyl)-N-(5-(5-(methoxymethyl)-1,2,4-oxadiazol-3-yl)-2,3-dihydro-1H-inden-1-yl)benzamide] | 5800 | 26600 |
| O=C(N[C@@H]1CCc2cc(-c3noc(C4CC4)n3)ccc21)c1cnn(CCCO)c1 [Compound 601, (R)-N-(5-(5-cyclopropyl-1,2,4-oxadiazol-3-yl)-2,3-dihydro-1H-inden-1-yl)-1-(3-hydroxypropyl)-1H-pyrazole-4-carboxamide] | 1600 | 7300 |
| Cc1ncc(C(=O)NC2CCc3cc(-c4noc(C(F)F)n4)ccc32)o1 (stereo not shown) [Compound 9, N-(5-(5-(difluoromethyl)-1,2,4-oxadiazol-3-yl)-2,3-dihydro-1H-inden-1-yl)-2-methyloxazole-5-carboxamide] | 1400 | 6700 |
| COCC(=O)N[C@@H]1CCc2cc(-c3noc(C(F)F)n3)ccc21 [Compound 285, (R)-N-(5-(5-(difluoromethyl)-1,2,4-oxadiazol-3-yl)-2,3-dihydro-1H-inden-1-yl)-2-methoxyacetamide] | 9300 | > 39200 |

Molecules with a lower IC50, results first:

| CDMF75 IC15 [nM] | IC50 [nM] | SMILES |
| --- | --- | --- |
| 400 | 1800 | Cc1nc(-c2ccc3c(c2)OC[C@H]3NC(=O)c2cccc(CO)c2)no1 [Compound 717, (S)-3-(hydroxymethyl)-N-(6-(5-methyl-1,2,4-oxadiazol-3-yl)-2,3-dihydrobenzofuran-3-yl)benzamide] |
| 800 | 3400 | O=C(N[C@@H]1CCc2cc(-c3noc(C(F)F)n3)ccc21)c1cc(CO)ccn1 [Compound 666, (R)-N-(5-(5-(difluoromethyl)-1,2,4-oxadiazol-3-yl)-2,3-dihydro-1H-inden-1-yl)-4-(hydroxymethyl)picolinamide] |
| 400 | 1400 | COCc1nc(-c2ccc3c(c2)CC[C@H]3NC(=O)c2ccnn2C)no1 [Compound 175, (R)-N-(5-(5-(methoxymethyl)-1,2,4-oxadiazol-3-yl)-2,3-dihydro-1H-inden-1-yl)-1-methyl-1H-pyrazole-5-carboxamide] |
| 1000 | 3100 | Cc1nc(-c2ccc3c(c2)OCC3NC(=O)c2ccnn2C)no1 (stereo not shown) [Compound 121, 1-methyl-N-(6-(5-methyl-1,2,4-oxadiazol-3-yl)-2,3-dihydrobenzofuran-3-yl)-1H-pyrazole-5-carboxamide] |
| 400 | 1200 | CCc1nc(-c2ccc3c(c2)OC[C@H]3NC(=O)c2cc(C)no2)no1 [Compound 339, (S)-N-(6-(5-ethyl-1,2,4-oxadiazol-3-yl)-2,3-dihydrobenzofuran-3-yl)-3-methylisoxazole-5-carboxamide] |
| 500 | 1700 | CCc1cc(-c2ccc3c(c2)CC[C@H]3NC(=O)c2cnc(C)o2)no1 [Compound 415, (R)-N-(5-(5-ethylisoxazol-3-yl)-2,3-dihydro-1H-inden-1-yl)-2-methyloxazole-5-carboxamide] |
| 500 | 1500 | Cc1nocc1C(=O)NC1CCc2cc(-c3noc(C(F)F)n3)ccc21 (stereo not shown) [Compound 129, N-(5-(5-(difluoromethyl)-1,2,4-oxadiazol-3-yl)-2,3-dihydro-1H-inden-1-yl)-3-methylisoxazole-4-carboxamide] |
| 200 | 700 | Cc1ncoc1C(=O)N[C@@H]1CCc2cc(-c3noc(C4CCC4)n3)ccc21 [Compound 409, (R)-N-(5-(5-cyclobutyl-1,2,4-oxadiazol-3-yl)-2,3-dihydro-1H-inden-1-yl)-4-methyloxazole-5-carboxamide] |
| 600 | 2000 | Cn1nccc1C(=O)NC1COc2cc(-c3noc(C4CC4)n3)ccc21 (stereo not shown) [Compound 221, N-(6-(5-cyclopropyl-1,2,4-oxadiazol-3-yl)-2,3-dihydrobenzofuran-3-yl)-1-methyl-1H-pyrazole-5-carboxamide] |
| 500 | 1800 | Cc1nc(-c2ccc3c(c2)OC[C@H]3NC(=O)c2ocnc2C)no1 [Compound 454, (S)-4-methyl-N-(6-(5-methyl-1,2,4-oxadiazol-3-yl)-2,3-dihydrobenzofuran-3-yl)oxazole-5-carboxamide] |
| 500 | 1700 | Cn1nccc1C(=O)NC1COc2cc(-c3noc(C(F)F)n3)ccc21 (stereo not shown) [Compound 123, N-(6-(5-(difluoromethyl)-1,2,4-oxadiazol-3-yl)-2,3-dihydrobenzofuran-3-yl)-1-methyl-1H-pyrazole-5-carboxamide] |
| 400 | 1300 | CCc1nc(-c2ccc3c(c2)CC[C@H]3NC(=O)c2cnn(C)c2C)no1 [Compound 571, (R)-N-(5-(5-ethyl-1,2,4-oxadiazol-3-yl)-2,3-dihydro-1H-inden-1-yl)-1,5-dimethyl-1H-pyrazole-4-carboxamide] |
| 400 | 1400 | Cc1ncoc1C(=O)N[C@@H]1COc2cc(-c3noc(C4(C)CC4)n3)ccc21 [Compound 462, (S)-4-methyl-N-(6-(5-(1-methylcyclopropyl)-1,2,4-oxadiazol-3-yl)-2,3-dihydrobenzofuran-3-yl)oxazole-5-carboxamide] |
